Experimental data: patent publication US20240399142A1, “Methods Of Using Alternating Electric Fields And Checkpoint Inhibitors” (NOVOCURE GMBH, priority 2023, published 2024)

Test: LUNAR study safety: adverse events per CTCAE version 4.03, safety population
Format: in vivo, human
[1] = Grade 5, nervous system disorders
[2] = Grade 5, renal and urinary disorders
[3] = Grade 5, respiratory, thoracic, and mediastinal disorders
[4] = Grade 5, skin and subcutaneous tissue disorders

Procedure: Safety and treatment data were compiled from all patients who received any study therapy and were analyzed according to the actual treatment received. Analyses were performed using SAS software, version 9.4 (SAS Institute).

In the case of `CC(=O)O[C@@]12CO[C@@H]1C[C@H](O)[C@@]1(C)C(=O)[C@H](O)C3=C(C)[C@@H](OC(=O)[C@H](O)[C@@H](NC(=O)OC(C)(C)C)c4ccccc4)C[C@@](O)([C@@H](OC(=O)c4ccccc4)[C@H]21)C3(C)C` [Docetaxel, docetaxel], the Fatigue (Grade 5) is reported as 0 no. (%), the Febrile neutropenia (Grade 5) is reported as 0 no. (%) and the Femoral neck fracture (Grade 5) is reported as 0 no. (%). The “Forced expiratory volume decreased” value (Grade 5) was 0 no. (%), the Gastroenteritis norovirus (Grade 5) was 0 no. (%) and the Gastroenteritis salmonella (Grade 5) was 0 no. (%). The “General physical health deterioration” value (Grade 5) was 0 no. (%), the Hematochezia (Grade 5) was 0 no. (%) and the Hepatic enzyme increased (Grade 5) was 0 no. (%). For the same compound, the Hip fracture (Grade 5) was 0 no. (%), the Hypercalcemia (Grade 5) was 0 no. (%) and the Hyperglycemia (Grade 5) was 0 no. (%). The Hyperkalaemia (Grade 5) was 0 no. (%), the Hypertriglyceridaemia (Grade 5) was 0 no. (%) and the Hypoalbuminemia (Grade 5) was 0 no. (%). For the same compound, the Hypocalcaemia (Grade 5) was 0 no. (%), the Hypokalemia (Grade 5) was 0 no. (%) and the Hyponatremia (Grade 5) was 0 no. (%). For the same compound, the Ileus (Grade 5) was 0 no. (%), the Infection (Grade 5) was 0 no. (%) and the Intestinal dilatation (Grade 5) was 0 no. (%). The Intestinal hemorrhage (Grade 5) was 0 no. (%), the Intestinal perforation (Grade 5) was 0 no. (%) and the Large intestine perforation (Grade 5) was 0 no. (%). The Leukopenia (Grade 5) was 0 no. (%), the Liver disorder (Grade 5) was 0 no. (%) and the Localized oedema (Grade 5) was 0 no. (%). The Lung abscess (Grade 5) was 0 no. (%), the Lymphocyte count decreased (Grade 5) was 0 no. (%) and the Lymphopenia (Grade 5) was 0 no. (%). For the same compound, the Malignant ascites (Grade 5) was 0 no. (%), the Malignant pleural effusion (Grade 5) was 0 no. (%) and the Malnutrition (Grade 5) was 0 no. (%). The Metastases to bone (Grade 5) was 0 no. (%), the “Metastases to central nervous system” value (Grade 5) was 0 no. (%) and the Metastases to meninges (Grade 5) was 0 no. (%). The Mouth ulceration (Grade 5) was 0 no. (%), the Mucosal inflammation (Grade 5) was 0 no. (%) and the “Multiple organ dysfunction syndrome” value (Grade 5) was 0 no. (%). The Muscular weakness (Grade 5) was 0 no. (%), the Myalgia (Grade 5) was 0 no. (%) and the Myocardial infarction (Grade 5) was 0 no. (%). For the same compound, the Nausea (Grade 5) was 0 no. (%), the Neck pain (Grade 5) was 0 no. (%) and the Neutropenia (Grade 5) was 0 no. (%). For the same compound, the Neutrophil count decreased (Grade 5) was 0 no. (%), the Non-cardiac chest pain (Grade 5) was 0 no. (%) and the Oedema peripheral (Grade 5) was 0 no. (%). The Oral candidiasis (Grade 5) was 0 no. (%), the Pancreatic failure (Grade 5) was 0 no. (%) and the Pancreatitis (Grade 5) was 0 no. (%). For the same compound, the Pericardial effusion (Grade 5) was 0 no. (%), the Peripheral sensory (Grade 5) was 0 no. (%) and the Platelet count decreased (Grade 5) was 0 no. (%). The Pneumonia (Grade 5) was 0 no. (%), the Pneumonia pseudomonal (Grade 5) was 0 no. (%) and the Pneumonia staphylococcal (Grade 5) was 0 no. (%). The Pyelonephritis (Grade 5) was 0 no. (%), the Pyopneumothorax (Grade 5) was 0 no. (%) and the Pyrexia (Grade 5) was 0 no. (%). For the same compound, the Refeeding syndrome (Grade 5) was 0 no. (%), the Respiratory tract infection (Grade 5) was 0 no. (%) and the Right ventricular failure (Grade 5) was 0 no. (%). The Sepsis (Grade 5) was 0 no. (%), the Septic shock (Grade 5) was 0 no. (%) and the Skin infection (Grade 5) was 0 no. (%). For the same compound, the Stomatitis (Grade 5) was 0 no. (%), the Subileus (Grade 5) was 0 no. (%) and the Thrombocytopenia (Grade 5) was 0 no. (%). For the same compound, the Thyroiditis subacute (Grade 5) was 0 no. (%), the Tumor pain (Grade 5) was 0 no. (%) and the “Upper respiratory tract infection” value (Grade 5) was 0 no. (%). For the same compound, the Urinary tract infection (Grade 5) was 0 no. (%), the Urosepsis (Grade 5) was 0 no. (%) and the Vomiting (Grade 5) was 0 no. (%). For the same compound, the Weight decreased (Grade 5) was 0 no. (%), the “White blood cell count decreased” value (Grade 5) was 0 no. (%) and the Brain oedema [1] was 0 no. (%). The Cauda equina syndrome [1] was 0 no. (%), the Dysarthria [1] was 0 no. (%) and the Hemiparesis [1] was 0 no. (%). For the same compound, the Motor dysfunction [1] was 0 no. (%), the Nervous system disorder [1] was 0 no. (%) and the Neurologic neglect syndrome [1] was 0 no. (%). The Peripheral sensorimotor neuropathy [1] was 0 no. (%), the Quadriparesis [1] was 0 no. (%) and the Seizure [1] was 0 no. (%). The Syncope [1] was 0 no. (%), the Vocal cord paralysis [1] was 0 no. (%) and the Anxiety (Grade 5, psychiatric disorders) was 0 no. (%). For the same compound, the Confusional state (Grade 5, psychiatric disorders) was 0 no. (%), the Mental status changes (Grade 5, psychiatric disorders) was 0 no. (%) and the Acute kidney injury [2] was 0 no. (%). The Urinary retention [2] was 0 no. (%), the Acute respiratory failure [3] was 2 (2.9) no. (%) and the Atelectasis [3] was 0 no. (%). The Bronchial obstruction [3] was 0 no. (%), the Bronchopleural fistula [3] was 0 no. (%) and the “Chronic obstructive pulmonary disease” value [3] was 0 no. (%). The Cough [3] was 0 no. (%), the Dyspnoea [3] was 0 no. (%) and the Esophago-bronchial fistula [3] was 0 no. (%). The Hemoptysis [3] was 0 no. (%), the Hypoxia [3] was 0 no. (%) and the Interstitial lung disease [3] was 0 no. (%). The Pleural effusion [3] was 0 no. (%), the Pneumonia aspiration [3] was 0 no. (%) and the Pneumonitis [3] was 0 no. (%). The Pulmonary embolism [3] was 0 no. (%), the Pulmonary hemorrhage [3] was 0 no. (%) and the Respiratory failure [3] was 1 (1.5) no. (%). For the same compound, the Alopecia [4] was 0 no. (%), the Dermatitis exfoliative [4] was 0 no. (%) and the Pruritus [4] was 0 no. (%). For the same compound, the Rash [4] was 0 no. (%), the Rash erythematous [4] was 0 no. (%) and the Rash maculopapular [4] was 0 no. (%). The Skin erosion [4] was 0 no. (%), the Skin reaction [4] was 0 no. (%) and the Skin toxicity [4] was 0 no. (%). The Deep vein thrombosis (Grade 5, vascular disorders) was 0 no. (%), the Embolism (Grade 5, vascular disorders) was 0 no. (%) and the Hypertension (Grade 5, vascular disorders) was 0 no. (%). For the same compound, the Jugular vein thrombosis (Grade 5, vascular disorders) was 0 no. (%), the “Peripheral arterial occlusive disease” value (Grade 5, vascular disorders) was 0 no. (%) and the Vena cava embolism (Grade 5, vascular disorders) was 0 no. (%). For the same compound, the Anemia (Grade ≥3) was 8 (11.8) no. (%), the Any adverse event (Grade ≥3) was 43 (63.2) no. (%) and the Neutropenia (Grade ≥3) was 11 (16.2) no. (%). For the same compound, the COVID-19 pneumonia (human, in vivo) was 0 no. (%), the Herpes zoster (human, in vivo) was 0 no. (%) and the “Adverse event leading to death” value (human, in vivo, 75 mg/m2) was 4 (5.9) no. (%). For the same compound, the “Adverse event leading to discontinuation” value (in vivo) was 1 (1.5) no. (%), the Serious adverse event (in vivo) was 28 (41.2) no. (%) and the “patients who discontinued therapy due to intolerable toxicity” value (in vivo) was “four”.
